Drawing on the supplement of paper PMC12137928, this text covers IC50 cell viability and efficacy for 23 compounds.

Assay [1] has as its system HCT116. The conditions noted are these: 72 h. The essentials: (§1)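 IC50 and maximal efficacy were derived from four-parameter Hill curve fits. The underlying CellTiter-Glo luminescence was scaled so that vehicle equals 0% and positive control equals -100%, and was then pattern-corrected. HCT116 cells had been seeded in 1536-well plates at 250 per well.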
Assay [2] has as its system HCT116. The assay is described as follows: efficacy (maximum % inhibition of viability vs DMSO); higher = more cytotoxic. The conditions noted are these: 72 h. An outline of the steps:
as §1

Take `C=C1/C(=C\C=C2/CCC[C@]3(C)[C@@H]([C@H](C)CC[C@@H](O)C(C)C)CC[C@@H]23)C[C@@H](O)C[C@@H]1O` [Tacalcitol]: the IC50 cell viability in the assay with HCT116 [1] (ICRF193 0 nM) amounted to 23.1 µM; in the assay on HCT116 [1] (ICRF193 200 nM), 20.6 µM. The efficacy in the assay on HCT116 [2] (ICRF193 0 nM) is 49.2%; with HCT116 [2] (ICRF193 200 nM) it was 53.2%.
On to `CC1(C)CCC(C)(C)c2cc(NC(=O)c3ccc(C(=O)O)cc3)ccc21` [Tamibarotene], for which the IC50 cell viability was 20.6 µM in the assay on HCT116 [1] (ICRF193 0 nM) and above 45.8 µM in the assay with HCT116 [1] (ICRF193 200 nM). Further, in the assay with HCT116 [2] (ICRF193 0 nM), the efficacy turned out to be 52.7%.
Consider `CC/C(=C(\c1ccccc1)c1ccc(OCCN(C)C)cc1)c1ccccc1` [Tamoxifen], for which the IC50 cell viability with HCT116 [1] (ICRF193 0 nM) came to 23.1 µM; in the assay with HCT116 [1] (ICRF193 200 nM), 18.3 µM. Also, the efficacy in the assay with HCT116 [2] (ICRF193 0 nM) came out at 101%; with HCT116 [2] (ICRF193 200 nM) it was 93%.
As to `O=C(OC[C@H]1O[C@@H](OC(=O)c2cc(O)c(O)c(OC(=O)c3cc(O)c(O)c(O)c3)c2)[C@H](OC(=O)c2cc(O)c(O)c(OC(=O)c3cc(O)c(O)c(O)c3)c2)[C@@H](OC(=O)c2cc(O)c(O)c(OC(=O)c3cc(O)c(O)c(O)c3)c2)[C@@H]1OC(=O)c1cc(O)c(O)c(OC(=O)c2cc(O)c(O)c(O)c2)c1)c1cc(O)c(O)c(OC(=O)c2cc(O)c(O)c(O)c2)c1` [Tannic acid], the IC50 cell viability with HCT116 [1] (ICRF193 0 nM) and in the assay with HCT116 [1] (ICRF193 200 nM) was 18.3 µM in each case. The figures for the efficacy with HCT116 [2] (ICRF193 0 nM) and with HCT116 [2] (ICRF193 200 nM) were 108% and 102%, respectively.
Turning to `CCC[C@H](NC(=O)[C@@H]1[C@H]2CCC[C@H]2CN1C(=O)[C@@H](NC(=O)[C@@H](NC(=O)c1cnccn1)C1CCCCC1)C(C)(C)C)C(=O)C(=O)NC1CC1` [Telaprevir (VX-950)], the figures for the IC50 cell viability in the assay on HCT116 [1] (ICRF193 0 nM) and with HCT116 [1] (ICRF193 200 nM) were 20.6 µM and 29.1 µM, respectively. The results for the efficacy in the assay with HCT116 [2] (ICRF193 0 nM) and in the assay on HCT116 [2] (ICRF193 200 nM) were 80.7% and 74.5%, respectively.
As to `Oc1cccc(-c2c3nc(c(-c4cccc(O)c4)c4ccc([nH]4)c(-c4cccc(O)c4)c4nc(c(-c5cccc(O)c5)c5ccc2[nH]5)CC4)C=C3)c1` [Temoporfin], the IC50 cell viability was above 45.8 µM with HCT116 [1] (ICRF193 0 nM) and 25.9 µM in the assay on HCT116 [1] (ICRF193 200 nM). Besides, in the assay with HCT116 [2] (ICRF193 200 nM), the efficacy was 46%.
As to `CO[C@H]1C[C@@H]2CC[C@@H](C)[C@@](O)(O2)C(=O)C(=O)N2CCCC[C@H]2C(=O)O[C@H]([C@H](C)C[C@@H]2CC[C@@H](OC(=O)C(C)(CO)CO)[C@H](OC)C2)CC(=O)[C@H](C)/C=C(\C)[C@@H](O)[C@@H](OC)C(=O)[C@H](C)C[C@H](C)/C=C/C=C/C=C/1C` [Temsirolimus], the IC50 cell viability in the assay with HCT116 [1] (ICRF193 0 nM) worked out at 14.2 µM; in the assay with HCT116 [1] (ICRF193 200 nM), 15.9 µM. In addition, the efficacy in the assay with HCT116 [2] (ICRF193 0 nM) turned out to be 74.5%; in the assay on HCT116 [2] (ICRF193 200 nM) it was 79%.
With `COc1cc([C@@H]2c3cc4c(cc3[C@@H](O[C@@H]3O[C@@H]5CO[C@@H](c6cccs6)O[C@H]5[C@H](O)[C@H]3O)[C@H]3COC(=O)[C@H]23)OCO4)cc(OC)c1O` [Teniposide], the results for the IC50 cell viability in the assay with HCT116 [1] (ICRF193 0 nM) and in the assay with HCT116 [1] (ICRF193 200 nM) were 2.31 µM and 1.83 µM, respectively. Further, the efficacy came out at 92% with HCT116 [2] (ICRF193 0 nM) and 103% with HCT116 [2] (ICRF193 200 nM).
Consider `COc1ccc(-n2nc(CCC(=O)N(C)O)cc2-c2ccc(Cl)cc2)cc1` [Tepoxalin], for which the IC50 cell viability in the assay on HCT116 [1] (ICRF193 0 nM) and in the assay with HCT116 [1] (ICRF193 200 nM) was 16.4 µM in each case. Moreover, the efficacy is 93.4% in the assay with HCT116 [2] (ICRF193 0 nM) and 88.3% with HCT116 [2] (ICRF193 200 nM).
For the compound `C/C(O)=C(\C#N)C(=O)Nc1ccc(C(F)(F)F)cc1` [Teriflunomide], the IC50 cell viability in the assay with HCT116 [1] (ICRF193 0 nM) was determined as 13 µM; in the assay on HCT116 [1] (ICRF193 200 nM), 11.6 µM. The results for the efficacy in the assay with HCT116 [2] (ICRF193 0 nM) and in the assay on HCT116 [2] (ICRF193 200 nM) were 51.8% and 46.2%, respectively.
As to `CN(C)C(=S)SC(=S)N(C)C` [Tetramethylthiuram monosulfide], the IC50 cell viability in the assay with HCT116 [1] (ICRF193 0 nM) was above 45.8 µM; with HCT116 [1] (ICRF193 200 nM), 3.66 µM. The efficacy with HCT116 [2] (ICRF193 200 nM) came out at 40.7%.
For the compound `CCSc1ccc2c(c1)N(CCCN1CCN(C)CC1)c1ccccc1S2` [Thiethylperazine dimalate], the IC50 cell viability in the assay on HCT116 [1] (ICRF193 0 nM) was found to be 29.1 µM; in the assay with HCT116 [1] (ICRF193 200 nM), 20.6 µM. Also, the values for the efficacy with HCT116 [2] (ICRF193 0 nM) and with HCT116 [2] (ICRF193 200 nM) were 102% and 101%, respectively.
On to `OC[C@H]1O[C@@H](n2cnc3c(S)ncnc32)[C@H](O)[C@@H]1O` [Thioinosine], for which the IC50 cell viability in the assay on HCT116 [1] (ICRF193 0 nM) amounted to 3.26 µM; in the assay with HCT116 [1] (ICRF193 200 nM), 3.66 µM. The figures for the efficacy in the assay with HCT116 [2] (ICRF193 0 nM) and in the assay with HCT116 [2] (ICRF193 200 nM) were 95.1% and 93.2%, respectively.
`CN1CCN(CCCN2c3ccccc3Sc3ccc(S(=O)(=O)N(C)C)cc32)CC1` [Thioproperazine dimethanesulfonate]: the IC50 cell viability with HCT116 [1] (ICRF193 0 nM) is above 45.8 µM; with HCT116 [1] (ICRF193 200 nM), 20.6 µM. For the same compound, the efficacy in the assay with HCT116 [2] (ICRF193 200 nM) amounted to 46.2%.
`CSc1ccc2c(c1)N(CCC1CCCCN1C)c1ccccc1S2` (stereo not given) [Thioridazine]: the IC50 cell viability in the assay on HCT116 [1] (ICRF193 0 nM) was 23.1 µM; in the assay with HCT116 [1] (ICRF193 200 nM), 18.3 µM. Besides, the results for the efficacy in the assay with HCT116 [2] (ICRF193 0 nM) and with HCT116 [2] (ICRF193 200 nM) were 115% and 95%, respectively.
`C=C(NC(=O)C(=C)NC(=O)c1csc(C2=N[C@@H]3c4csc(n4)[C@H]4NC(=O)c5csc(n5)[C@H]([C@](C)(O)[C@@H](C)O)NC(=O)[C@H]5CSC(=N5)/C(=C/C)NC(=O)[C@H]([C@@H](C)O)NC(=O)c5csc(n5)[C@]3(CC2)NC(=O)[C@H](C)NC(=O)C(=C)NC(=O)[C@H](C)NC(=O)[C@H]([C@@H](C)CC)N[C@@H]2C=Cc3c([C@H](C)O)cc(nc3[C@H]2O)C(=O)O[C@@H]4C)n1)C(N)=O` [Thiostrepton]: the values for the IC50 cell viability with HCT116 [1] (ICRF193 0 nM) and with HCT116 [1] (ICRF193 200 nM) were above 45.8 µM and 5.17 µM, respectively. The efficacy with HCT116 [2] (ICRF193 200 nM) was found to be 58.6%.
The like results for `CN(C)C(=S)SSC(=S)N(C)C` [Thiram] were, in that order, above 45.8 µM, 29.1 µM and 82.8%.
On to `CCCCCCCCCCCCCCCC[N+](C)(C)CCN(Cc1ccc(OC)cc1)c1ncccn1` [Thonzonium bromide], for which the IC50 cell viability in the assay on HCT116 [1] (ICRF193 0 nM) is 18.3 µM; in the assay with HCT116 [1] (ICRF193 200 nM) it was 4.61 µM. For the same compound, the efficacy was 120% in the assay with HCT116 [2] (ICRF193 0 nM) and 89.7% in the assay with HCT116 [2] (ICRF193 200 nM).
Taken in the same sequence, the figures for `CCCSc1nc(N[C@@H]2C[C@H]2c2ccc(F)c(F)c2)c2nnn([C@@H]3C[C@H](OCCO)[C@@H](O)[C@H]3O)c2n1` [Ticagrelor] were 29.1 µM, 18.3 µM, 77.1% and 92.6%.
Turning to `O=C(CCCN1CCC(n2c(=S)[nH]c3ccccc32)CC1)c1ccc(F)cc1` [Timiperone], the IC50 cell viability is above 45.8 µM in the assay with HCT116 [1] (ICRF193 0 nM) and 18.3 µM in the assay with HCT116 [1] (ICRF193 200 nM). Further, the efficacy with HCT116 [2] (ICRF193 200 nM) amounted to 46.1%.
For `Clc1ccc(C(Cn2ccnc2)OCc2ccsc2Cl)c(Cl)c1` (stereo not given) [Tioconazole], the results for the IC50 cell viability in the assay with HCT116 [1] (ICRF193 0 nM) and in the assay with HCT116 [1] (ICRF193 200 nM) were 20.6 µM and 18.3 µM, respectively. Also, the efficacy with HCT116 [2] (ICRF193 0 nM) worked out at 102%; with HCT116 [2] (ICRF193 200 nM), 91.7%.
The like results for `Cn1cncc1[C@@](N)(c1ccc(Cl)cc1)c1ccc2c(c1)c(-c1cccc(Cl)c1)cc(=O)n2C` [Tipifarnib] were, in that order, 20.6 µM, 23.1 µM, 118% and 126%.
Turning to `CC(C)C(=O)OCc1cccc(OC(=O)[C@@H]2N3C(=O)[C@@H](NC(=O)Cc4ccccc4)[C@H]3SC2(C)C)c1` [Tobicillin], the IC50 cell viability in the assay on HCT116 [1] (ICRF193 0 nM) and in the assay on HCT116 [1] (ICRF193 200 nM) was 29.1 µM throughout. Also, the efficacy in the assay on HCT116 [2] (ICRF193 0 nM) was determined as 122%; with HCT116 [2] (ICRF193 200 nM), 103%.
